# Laboratory results: patent EP1052287A2, “Complex for transferring an anionic substance of interest into a cell” (TRANSGENE S.A., priority 1999, dated 2000)
# Where no end group is shown, it is not given here.
# What was measured:
# [1] = Size of peptide/DNA complexes by quasi-elastic light scattering; assay type: physicochemical; conditions: complexes (-/+) [1:4], 6 µg DNA, 500 µl
# Method: Sizes of complexes prepared with a plasmid DNA (PTG11033; see EP-A 890 32, 9.6 kb) and the C1qA (4-26) peptide (SEQ ID NO:1)see Table I) were evaluated. Complexes were formulated either in 5% glucose or in ultrafiltrated foetal calf serum (YM10 Amicon membrane). Formulation was made in 500 µl buffer, with 6 µg DNA and the quantity of peptide necessary to form a [1:4], [-:+] complex. As a control a polylysine SV40 NLS peptide was used. […] When oxidized, the dimerized C1qA peptide could form even smaller complexes, whatever the formulation buffer used. The reasonable sizes obtained in ultrafiltrated serum with C1qA peptides is an advantage for the use of this peptide rather than polylysine derivatives.
# Complexes (-/+):[1:4], 6 µg DNA, 500 µl. Size measures: quasi-elastic light scattering, COULTER N4+.
# plasmid pTGl1033 = assay: Gel retardation assay, agarose gel electrophoresis (Example 2); assay type: binding
# Method: (§1) Gel retardation assay was performed with C1qA (4-26) (SEQ ID NO:1) in several buffers: PBS, TBS, 5% glucose, or ultrafiltrated serum (YM10 Amicon membrane). DNA and peptides have been mixed at charge ratios [-/+] of [1:4], [1:1] and [1:0.2].
# plasmid pTG11236 = assay: Gel retardation assay (Example 4); assay type: binding
# Method: as §1
# Gel retardation assay was performed with peptides SEQ ID NO: 1, SEQ ID NO: 2, SEQ ID NO: 3, SEQ ID NO: 7, SEQ ID NO: 8, SEQ ID NO: 9, SEQ ID NO: 10 , SEQ ID NO: 11, SEQ ID NO: 12, SEQ ID NO: 13, in various media : 5% glucose, 6% Elohes (Fresenius Kabi) and ultrafiltrated serum (YM10 Amicon membrane). Technical conditions are similar to Example 2. DNA and peptides have been mixed at 0.36, 1.44 and 1.8 nmoles of peptide per µg of DNA which correspond to the following charge ratios N/P: […]
# [2] = 1.44 nmoles of peptide per µg of DNA
# [3] = 1.8 nmoles of peptide per µg of DNA
Substance,Sizes in 5% glucose [1],Sizes in ultrafiltrated serum [1],gel retardation of DNA (plasmid pTGl1033; charge ratio [-/+] [1:1]),"gel retardation of DNA (plasmid pTGl1033; charge ratio [-/+] [1:4], PBS, TBS, 5% glucose or ultrafiltrated serum, 0.8% agarose, TBE)",retardation of the complexed plasmid DNA (plasmid pTG11236; [2]),retardation of the complexed plasmid DNA (plasmid pTG11236; [3])
"SP-1052 oxidized: oxidized, dimerized C1qA (4-26) peptide (CRAPDGKKGEAGRPGRRGRPGLK; also: oxidized disulfide-linked dimer; UniProt P02745 26-48, looked up, fragment)",200 nm,300 nm,–,–,–,–
"SEQ ID NO: 1: synthetic polypeptide consisting of SEQ ID NO:1, C1qA (4-26) of the C1q subunit of C1 complement factor (CRAPDGKKGEAGRPGRRGRPGLK; UniProt P02745 26-48, looked up, fragment)",1µm,300-500 nm,significative retardation,strong association of DNA to the peptides,complete retardation,complete retardation
"SEQ ID NO: 3: C1qA (76-92) peptide (GIKGTKGSPGNIKDQPR; UniProt P02745 98-114, looked up, fragment)",–,–,–,–,complete retardation,complete retardation
